Results: patent US10988792B2, “Methods for antimicrobial resistance determination” (bioMerieux, Inc., priority 2009, dated 2021)

Key:
Type in all cases: cell-based
E. faecium #12406 (VRE) = experiment: Vancomycin MIC by VITEK 2; conditions: read-out: vancomycin MIC by VITEK 2
E. faecium 12480 (VSE) = experiment: Co-culture with vancomycin and Sytox Green, intrinsic fluorescence and membrane integrity of pellet; conditions: for Microbial NADH fluorescence (Ex340 nm/Em440 nm) / Microbial tryptophan fluorescence (Ex300 nm/Em360 nm): 12480 (VSE)
Experimental: For each test strain, a 1 μL loopful of colonies from a 24-48 hour plate was suspended in 10-12 mL of BacT/ALERT SA media and cultured for 4-9 hours at 37° C. Samples of each log phase culture were then incubated with 0, 0.25, 2.5 and 12.5 μg/mL of vancomycin-HCl in combination with 1:5000 dilution of stock Sytox Green, a viable cell impermeant DNA stain (Molecular Probes, cat #S7020), for a period of 4 hours at 37° C. Aliquots of the cultures were removed for analysis immediately (T0) and after 1, 2.5 and 4 hours.
(§1) At the appropriate time-point, 0.5 mL aliquots of the cultures (0.5 mL) were overlaid on a density cushion composed of 24% w/v CsCl in 10 mM Hepes, pH 7.4 and 0.005% Pluronic F-108 contained in custom-made optical centrifugation tubes as disclosed in related U.S. patent application, Ser. No. 12/589,969, entitled “Separation Device for Use in the Separation, Characterization and/or Identification of Microorganisms”, filed Oct. 30, 2009. The tubes were sealed and centrifuged at 10,000 rpm for 2 minutes to separate intact microorganisms from the culture medium and unbound chemicals. The tubes were then placed into a custom-built tube holder directly onto a fiber optic probe built into the base. The probe was attached to a FluoroLog 3 spectrofluorimeter. The tube was interrogated through its UV-transparent base, and fluorescence and diffuse reflectance readings collected.

E. faecium 13185 (VRE) = experiment: as above; conditions: for Microbial NADH fluorescence (Ex340 nm/Em440 nm) / Microbial tryptophan fluorescence (Ex300 nm/Em360 nm): 13185 (VRE)
Experimental: (§2) For each test strain, a 1 μL loopful of colonies from a 24-48 hour plate was suspended in 10-12 mL of BacT/ALERT SA media and cultured for 4-9 hours at 37° C. […] Aliquots of the cultures were removed for analysis immediately (T0) and after 1, 2.5 and 4 hours.
as §1

E. faecium 12406 (VRE) = experiment: as above; conditions: for Microbial NADH fluorescence (Ex340 nm/Em440 nm) / Microbial tryptophan fluorescence (Ex300 nm/Em360 nm): 12406 (VRE)
Experimental: as §2, §1

E. faecium #13185 (VRE) = experiment: Vancomycin MIC by VITEK 2; conditions: read-out: vancomycin MIC by VITEK 2
S. aureus isolates = experiment: Vitek AST cards MIC; conditions: 3/5 strains classified as benzyl-penicillin resistant and oxacillin sensitive by Vitek cards
Experimental: Twenty different strains of S. aureus (10 MRSA and 10 MSSA strains, confirmed with cefoxitin discs and Vitek-2) were propagated. A loopful of growth (1 μL) was removed from 24-hour plates and suspended in BacT/ALERT SA culture media (8 ml in a glass screw-capped tube). The tubes were vortexed well and incubated at 36° C. for 6 hours. The OD of each suspension was measured at 660 nm and adjusted to approximately the same density (0.50-0.75 OD; sample #12166 was only 0.28). 50 μM BOCILLIN™-FL (0.1 ml) was placed into each of 20 labeled microfuge tubes. A sample of each strain (0.9 ml) was added to each tube, mixed, and incubated at 37° C. for 30 minutes. The reaction mixture was then removed and added to a second set of tubes containing 0.2 ml of an oil blend (1.000 part type DF immersion oil plus 0.875 part Drakeol 5 mineral oil). The tubes were centrifuged for 2 minutes at 10,000 rpm in an A-8-11 rotor (Eppendorf 5417R). The supernatant and most of the oil was aspirated with a vacuum device. The remaining oil was removed using a Gilson P200 tip and the pellet was resuspended in 100 μl PBS. The cells were transferred to an acrylic cuvette containing 3 ml PBS and read in the FluoroLog 3 system using the FluoroScan “Bocillin” points listed in Table 3. Additionally, Vitek AST cards were run on each of the 20 isolates (from the same 24 hour plates).

[1] = VSE strain 12480, vancomycin 2.5 and 12.5 μg/mL
[2] = VRE strain 13185, vancomycin 2.5 and 12.5 μg/mL
[3] = VRE strain 12406, vancomycin 2.5 and 12.5 μg/mL

## CN[C@H](CC(C)C)C(=O)N[C@H]1C(=O)N[C@@H](CC(N)=O)C(=O)N[C@H]2C(=O)N[C@H]3C(=O)N[C@H](C(=O)N[C@H](C(=O)O)c4cc(O)cc(O)c4-c4cc3ccc4O)[C@H](O)c3ccc(c(Cl)c3)Oc3cc2cc(c3O[C@@H]2O[C@H](CO)[C@@H](O)[C@H](O)[C@H]2O[C@H]2C[C@](C)(N)[C@H](O)[C@H](C)O2)Oc2ccc(cc2Cl)[C@H]1O [vancomycin]
E. faecium #12406 (VRE)
  MIC: > 32 µg/mL
E. faecium 12480 (VSE); Vanc. 0.25 μg/mL, 1 hour
  Microbial NADH fluorescence (Ex340 nm/Em440 nm): 271,470
  Microbial tryptophan fluorescence (Ex300 nm/Em360 nm): 460,266
E. faecium 12480 (VSE); Vanc. 0.25 μg/mL, 2.5 hour
  Microbial NADH fluorescence (Ex340 nm/Em440 nm): 500,618
  Microbial tryptophan fluorescence (Ex300 nm/Em360 nm): 678,352
E. faecium 12480 (VSE); Vanc. 0.25 μg/mL, 4 hour
  Microbial NADH fluorescence (Ex340 nm/Em440 nm): 483,445
  Microbial tryptophan fluorescence (Ex300 nm/Em360 nm): 706,797
E. faecium 12480 (VSE); Vanc. 0.25 μg/mL, Zero time
  Microbial NADH fluorescence (Ex340 nm/Em440 nm): 184,649
  Microbial tryptophan fluorescence (Ex300 nm/Em360 nm): 425,539
E. faecium 12480 (VSE); Vanc. 2.5 μg/mL, 1 hour
  Microbial NADH fluorescence (Ex340 nm/Em440 nm): 254,828
  Microbial tryptophan fluorescence (Ex300 nm/Em360 nm): 438,541
E. faecium 12480 (VSE); Vanc. 2.5 μg/mL, 2.5 hour
  Microbial NADH fluorescence (Ex340 nm/Em440 nm): 149,686
  Microbial tryptophan fluorescence (Ex300 nm/Em360 nm): 466,525
E. faecium 12480 (VSE); Vanc. 2.5 μg/mL, 4 hour
  Microbial NADH fluorescence (Ex340 nm/Em440 nm): 100,931
  Microbial tryptophan fluorescence (Ex300 nm/Em360 nm): 416,780
E. faecium 12480 (VSE); Vanc. 2.5 μg/mL, Zero time
  Microbial NADH fluorescence (Ex340 nm/Em440 nm): 221,692
  Microbial tryptophan fluorescence (Ex300 nm/Em360 nm): 361,962
E. faecium 12480 (VSE); Vanc. 12.5 μg/mL, 1 hour
  Microbial NADH fluorescence (Ex340 nm/Em440 nm): 210,963
  Microbial tryptophan fluorescence (Ex300 nm/Em360 nm): 428,402
E. faecium 12480 (VSE); Vanc. 12.5 μg/mL, 2.5 hour
  Microbial NADH fluorescence (Ex340 nm/Em440 nm): 171,994
  Microbial tryptophan fluorescence (Ex300 nm/Em360 nm): 455,446
E. faecium 12480 (VSE); Vanc. 12.5 μg/mL, 4 hour
  Microbial NADH fluorescence (Ex340 nm/Em440 nm): 127,042
  Microbial tryptophan fluorescence (Ex300 nm/Em360 nm): 438,978
E. faecium 12480 (VSE); Vanc. 12.5 μg/mL, Zero time
  Microbial NADH fluorescence (Ex340 nm/Em440 nm): 178,982
  Microbial tryptophan fluorescence (Ex300 nm/Em360 nm): 389,264
E. faecium 12480 (VSE); [1]
  Course of cellular NADH levels: gradually declined over time
  Course of cellular tryptophan levels: remained stable over time
E. faecium 13185 (VRE); Vanc. 0.25 μg/mL, 1 hour
  Microbial NADH fluorescence (Ex340 nm/Em440 nm): 708,442
  Microbial tryptophan fluorescence (Ex300 nm/Em360 nm): 557,453
E. faecium 13185 (VRE); Vanc. 0.25 μg/mL, 2.5 hour
  Microbial NADH fluorescence (Ex340 nm/Em440 nm): 496,545
  Microbial tryptophan fluorescence (Ex300 nm/Em360 nm): 809,317
E. faecium 13185 (VRE); Vanc. 0.25 μg/mL, 4 hour
  Microbial NADH fluorescence (Ex340 nm/Em440 nm): 627,392
  Microbial tryptophan fluorescence (Ex300 nm/Em360 nm): 880,899
E. faecium 13185 (VRE); Vanc. 0.25 μg/mL, Zero time
  Microbial NADH fluorescence (Ex340 nm/Em440 nm): 316,618
  Microbial tryptophan fluorescence (Ex300 nm/Em360 nm): 546,862
E. faecium 13185 (VRE); Vanc. 2.5 μg/mL, 1 hour
  Microbial NADH fluorescence (Ex340 nm/Em440 nm): 237,463
  Microbial tryptophan fluorescence (Ex300 nm/Em360 nm): 569,043
E. faecium 13185 (VRE); Vanc. 2.5 μg/mL, 2.5 hour
  Microbial NADH fluorescence (Ex340 nm/Em440 nm): 965,305
  Microbial tryptophan fluorescence (Ex300 nm/Em360 nm): 489,661
E. faecium 13185 (VRE); Vanc. 2.5 μg/mL, 4 hour
  Microbial NADH fluorescence (Ex340 nm/Em440 nm): 782,908
  Microbial tryptophan fluorescence (Ex300 nm/Em360 nm): 868,768
E. faecium 13185 (VRE); Vanc. 2.5 μg/mL, Zero time
  Microbial NADH fluorescence (Ex340 nm/Em440 nm): 256,533
  Microbial tryptophan fluorescence (Ex300 nm/Em360 nm): 531,239
E. faecium 13185 (VRE); Vanc. 12.5 μg/mL, 1 hour
  Microbial tryptophan fluorescence (Ex300 nm/Em360 nm): 579,537
E. faecium 13185 (VRE); Vanc. 12.5 μg/mL, 2.5 hour
  Microbial NADH fluorescence (Ex340 nm/Em440 nm): 775,629
  Microbial tryptophan fluorescence (Ex300 nm/Em360 nm): 537,067
E. faecium 13185 (VRE); Vanc. 12.5 μg/mL, 4 hour
  Microbial NADH fluorescence (Ex340 nm/Em440 nm): 710,100
  Microbial tryptophan fluorescence (Ex300 nm/Em360 nm): 782,106
E. faecium 13185 (VRE); Vanc. 12.5 μg/mL, Zero time
  Microbial NADH fluorescence (Ex340 nm/Em440 nm): 234,554
  Microbial tryptophan fluorescence (Ex300 nm/Em360 nm): 537,160
E. faecium 13185 (VRE); [2]
  Course of cellular NADH levels: rose after approximately 1 hour in culture and continued to rise over the 4-hour culture period
  Course of cellular tryptophan levels: rose slowly over the 4-hour culture period
E. faecium 12406 (VRE); Vanc. 0.25 μg/mL, 1 hour
  Microbial NADH fluorescence (Ex340 nm/Em440 nm): 616,448
  Microbial tryptophan fluorescence (Ex300 nm/Em360 nm): 666,793
E. faecium 12406 (VRE); Vanc. 0.25 μg/mL, 2.5 hour
  Microbial NADH fluorescence (Ex340 nm/Em440 nm): 703,451
  Microbial tryptophan fluorescence (Ex300 nm/Em360 nm): 679,880
E. faecium 12406 (VRE); Vanc. 0.25 μg/mL, 4 hour
  Microbial NADH fluorescence (Ex340 nm/Em440 nm): 598,853
  Microbial tryptophan fluorescence (Ex300 nm/Em360 nm): 800,658
E. faecium 12406 (VRE); Vanc. 0.25 μg/mL, Zero time
  Microbial NADH fluorescence (Ex340 nm/Em440 nm): 207,307
  Microbial tryptophan fluorescence (Ex300 nm/Em360 nm): 463,942
E. faecium 12406 (VRE); Vanc. 2.5 μg/mL, 1 hour
  Microbial tryptophan fluorescence (Ex300 nm/Em360 nm): 560,948
E. faecium 12406 (VRE); Vanc. 2.5 μg/mL, 2.5 hour
  Microbial NADH fluorescence (Ex340 nm/Em440 nm): 573,926
  Microbial tryptophan fluorescence (Ex300 nm/Em360 nm): 656,768
E. faecium 12406 (VRE); Vanc. 2.5 μg/mL, 4 hour
  Microbial NADH fluorescence (Ex340 nm/Em440 nm): 931,786
  Microbial tryptophan fluorescence (Ex300 nm/Em360 nm): 651,886
E. faecium 12406 (VRE); Vanc. 2.5 μg/mL, Zero time
  Microbial NADH fluorescence (Ex340 nm/Em440 nm): 440,416
  Microbial tryptophan fluorescence (Ex300 nm/Em360 nm): 425,860
E. faecium 12406 (VRE); Vanc. 12.5 μg/mL, 1 hour
  Microbial NADH fluorescence (Ex340 nm/Em440 nm): 207,520
  Microbial tryptophan fluorescence (Ex300 nm/Em360 nm): 433,269
E. faecium 12406 (VRE); Vanc. 12.5 μg/mL, 2.5 hour
  Microbial NADH fluorescence (Ex340 nm/Em440 nm): 279,170
  Microbial tryptophan fluorescence (Ex300 nm/Em360 nm): 560,607
E. faecium 12406 (VRE); Vanc. 12.5 μg/mL, 4 hour
  Microbial NADH fluorescence (Ex340 nm/Em440 nm): 765,401
  Microbial tryptophan fluorescence (Ex300 nm/Em360 nm): 738,461
E. faecium 12406 (VRE); Vanc. 12.5 μg/mL, Zero time
  Microbial NADH fluorescence (Ex340 nm/Em440 nm): 172,372
  Microbial tryptophan fluorescence (Ex300 nm/Em360 nm): 463,985
E. faecium 12406 (VRE); [3]
  Course of cellular NADH levels: rose after approximately 1 hour in culture and continued to rise over the 4-hour culture period
  Course of cellular tryptophan levels: rose slowly over the 4-hour culture period
E. faecium 12406 (VRE); VRE strain #12406, correlated with an influx of Sytox Green
  Delay in NADH production compared with the other VRE strain: longer delay in NADH production
E. faecium #13185 (VRE)
  MIC: > 32 µg/mL

## Cc1onc(-c2ccccc2)c1C(=O)N[C@@H]1C(=O)N2[C@@H]1SC(C)(C)[C@@H]2C(=O)O [oxacillin]
S. aureus isolates
  oxacillin MIC: 0.5 µg/mL
